Laboratory results taken from patent US20070053955A1, “Compositions and methods for improving cellular survival and reducing apoptosis after ischemic episode in the brain” (NESTEC S.A., priority 2005, published 2007).

Key:
Assay type in all cases: in vivo
[1] = test system: transient cerebral ischemia in an ovariectomized rat model; test: Transient middle cerebral artery (tMCA) occlusion, ischemic lesion (infarct) volume by TTC staining; details: all rats, vs control diet, 60 min tMCA occlusion, 24 h reperfusion (FIG. 1)
Method: Animals. Female Charles Rivers Sprague-Dawley rats (250 g, Wilmington, Mass.) were acclimatized to animal facilities three days prior to surgery with a 12 hour light-dark cycle. Bilateral ovariectomy was performed 2 weeks before diet feeding began. Four weeks after the start of diet feeding, transient middle cerebral artery (tMCA) occlusion under anesthesia was performed following intraperitoneal (i.p.) injection of ketamine (60 mg/kg) and xylazine (10 mg/kg).
Diet and Hormone Administration. Fourteen to 15 rats per group were randomly assigned to one of five treatment groups. These groups were as follows: […]
All diets were fed ad libitum to the rats for four weeks. […] Also once per week, body weights and food intake were determined. […]
Middle cerebral artery occlusion and samples preparation. […] Rectal temperature was monitored and maintained between 36.5 and 37° C. with a heating pad throughout the procedure. […]
Some animals were eliminated from the study during the protocol. The number of animals quantified for lesion volume ranged from 12 to 15 per group.
Statistical methods. Results were analyzed with one-way analysis of variance (ANOVA) using Prism software(Graphpad Inc; San Diego, Calif.). The significance of differences among groups was determined by one-way ANOVA followed by Tukey's multiple comparison tests. All values were expressed as mean±SEM.

[2] = test system: transient cerebral ischemia in an ovariectomized rat model; test: Cerebral ischemia-induced apoptosis, DNA fragmentation by TUNEL staining after tMCA occlusion; details: mean of three brain regions, normalized to DAPI cell count, vs control diet (FIG. 3)
[3] = test system: growth factors and anti-inflammatory proteins; test: Expression of growth factors and anti-inflammatory proteins in dogs given supplemental arginine; details: dietary supplementation

Compound	effect on infarct size / mean infarct volume [1]	reduction of infarct volume ([1]; diets fed 4 weeks, E2 implant 1 week)	TUNEL staining / TUNEL-positive cell counts [2]	expression of growth factors and anti-inflammatory proteins [3]
C[C@]12CC[C@@H]3c4ccc(O)cc4CC[C@H]3[C@@H]1CC[C@@H]2O [Estradiol, 17β-estradiol]	reduced infarct size	68%	substantial reduction in TUNEL staining	
N=C(N)NCCC[C@H](N)C(=O)O [arginine, L-arginine]				increased expression of multiple growth factors and anti-inflammatory proteins in a dose-dependent manner
